Source: article PMC7112121 (Bioorganic Chemistry, 2019)
Where two headings read alike, the source gives them in different places.

How the values were obtained:
HSV-2 = assay: Antiviral CPE reduction assay, HSV-2 in HEL cells; type: cell-based, Herpes simplex virus-2; conditions: for Antiviral EC50 HSV-2: HEL cells, CPE by microscopy, mean of two experiments; for EC50: Human alphaherpesvirus 2, HEL, read-out: Antiviral EC50 HSV-2
Sindbis virus = assay: Antiviral CPE reduction assay, Sindbis virus in VERO cells; type: cell-based; conditions: for Antiviral EC50 Sindbis virus: VERO cells, CPE by microscopy, mean of two experiments; for EC50: Sindbis virus, Vero, read-out: Antiviral EC50 Sindbis virus
[1] = test system: Mycobacterium tuberculosis H37Rv; conditions: for H37Rv Finding Activity: M. tuberculosis H37Rv, MABA in BACTEC 12B medium
ACV^r-HSV-1 = assay: Antiviral CPE reduction assay, ACVr-HSV-1 in HEL cells; type: cell-based; conditions: for Antiviral EC50 ACV^r-HSV-1: HEL cells, CPE by microscopy, mean of two experiments; for EC50: Human alphaherpesvirus 1, HEL, read-out: Antiviral EC50 ACV^r-HSV-1
[2] = test system: Vesicular stomatitis virus; type: cell-based
HSV-1 = assay: Antiviral CPE reduction assay, HSV-1 in HEL cells; type: cell-based, Herpes simplex virus-1; conditions: for Antiviral EC50 HSV-1: HEL cells, CPE by microscopy, mean of two experiments; for EC50: Human alphaherpesvirus 1, HEL, read-out: Antiviral EC50 HSV-1
Parainfluenza-3 virus = assay: Antiviral CPE reduction assay, Parainfluenza-3 virus in VERO cells; type: cell-based; conditions: for Antiviral EC50 Parainfluenza-3 virus: VERO cells, CPE by microscopy, mean of two experiments; for EC50: Vero, read-out: Antiviral EC50 Parainfluenza-3 virus
Coxsackie B4 virus = assay: Antiviral CPE reduction assay, Coxsackie B4 virus in VERO cells; type: cell-based; conditions: for Antiviral EC50 Coxsackie B4 virus: CPE by microscopy, mean of two experiments; for EC50: Enterovirus B, B4, Vero, read-out: Antiviral EC50 Coxsackie B4 virus
Punto Toro virus = assay: Antiviral CPE reduction assay, Punto Toro virus in VERO cells; type: cell-based, Punta toro virus; conditions: for Antiviral EC50 Punto Toro virus: VERO cells, CPE by microscopy, mean of two experiments; for EC50: Punta Toro virus, Vero, read-out: Antiviral EC50 Punto Toro virus
Vaccinia virus = assay: microbe, parasite or virus in culture; type: cell-based; conditions: for EC50: Orthopoxvirus vaccinia, HEL, read-out: Antiviral EC50 Vaccinia virus
Reovirus-1 = assay: Antiviral CPE reduction assay, Reovirus-1 in VERO cells; type: cell-based; conditions: for Antiviral EC50 Reovirus-1: VERO cells, CPE by microscopy, mean of two experiments; for EC50: Vero, read-out: Antiviral EC50 Reovirus-1
CRFK feline kidney cells = conditions: MTS cell viability assay
[3] = test system: human embryonic lung (HEL) fibroblast cells; conditions: minimum cytotoxic concentration
VERO cells = conditions: minimum cytotoxic concentration
Feline herpesvirus = assay: Antiviral CPE reduction assay, Feline herpesvirus in CRFK cells; type: cell-based; conditions: Felid alphaherpesvirus 1, CRFK, read-out: Antiviral EC50 Feline herpesvirus
Feline coronavirus = assay: microbe, parasite or virus in culture; conditions: Alphacoronavirus 1, CRFK, read-out: Antiviral EC50 Feline coronavirus
[4] = microscopic inspection of cell morphology

## O=C(Cc1csc2nc(-c3ccc(Br)cc3)cn12)NN=C1CCCCC1 [Compound 4b, 6-(4-Bromophenyl)-N^2-(cyclohexylidene)imidazo[2,1-b]thiazole-3-acetohydrazide]
HSV-2
  Antiviral EC50 HSV-2: >100 mg/L
Sindbis virus
  Antiviral EC50 Sindbis virus: >100 mg/L
[1]
  H37Rv Finding MIC: >100 mg/L
  IC50: > 100 mg/L
  H37Rv Finding Activity: Inactive
ACV^r-HSV-1
  Antiviral EC50 ACV^r-HSV-1: >100 mg/L
[2]
  Antiviral EC50 Vesicular stomatitis virus: >100 mg/L
HSV-1
  Antiviral EC50 HSV-1: >100 mg/L
Parainfluenza-3 virus
  Antiviral EC50 Parainfluenza-3 virus: >100 mg/L
Coxsackie B4 virus; VERO cells
  Antiviral EC50 Coxsackie B4 virus: >100 mg/L
Punto Toro virus
  Antiviral EC50 Punto Toro virus: >100 mg/L
Vaccinia virus
  Antiviral EC50 Vaccinia virus: >100 mg/L
Reovirus-1
  Antiviral EC50 Reovirus-1: >100 mg/L
CRFK feline kidney cells
  Cytotoxicity CC50: >100 mg/L
[3]; [4]
  Cytotoxicity MCC: 20 µg/mL
VERO cells; [4]
  Cytotoxicity MCC: >100 µg/mL

## CC1SC2(CCC(c3ccc(O)cc3)CC2)N(NC(=O)Cc2csc3nc(-c4ccc(Br)cc4)cn23)C1=O (centres unmarked) [Compound 6d, 2-[6-(4-Bromophenyl)imidazo[2,1-b]thiazole-3-yl]-N-(2-methyl-8-(4-hydroxyphenyl)-3-oxo-1-thia-4-azaspiro[4.5]dec-4-yl)acetamide]
HSV-2
  EC50: > 100 mg/L
Sindbis virus
  EC50: > 100 mg/L
ACV^r-HSV-1
  EC50: > 100 mg/L
HSV-1
  EC50: > 100 mg/L
Parainfluenza-3 virus
  EC50: > 100 mg/L
Feline herpesvirus
  EC50: > 100 mg/L
Coxsackie B4 virus; Coxsackie B4 virus, VERO cells
  selectivity index: ≥ 2
Coxsackie B4 virus
  EC50: 10 mg/L
Punto Toro virus
  EC50: > 100 mg/L
Vaccinia virus
  EC50: > 100 mg/L
Reovirus-1
  EC50: > 100 mg/L
Feline coronavirus
  EC50: > 100 mg/L
[3]; [4]
  Cytotoxicity MCC: ≥20 µg/mL
VERO cells; [4]
  Cytotoxicity MCC: ≥20 µg/mL

## Nc1nc2c(ncn2COCCO)c(=O)[nH]1 [Acyclovir, reference compound]
HSV-2
  EC50: 0.5 µM
ACV^r-HSV-1
  EC50: ≥ 112 µM
Vaccinia virus
  EC50: > 250 µM

## NC(=O)c1ncn([C@@H]2O[C@H](CO)[C@@H](O)[C@H]2O)n1 [Ribavirin, reference compound]
Sindbis virus
  EC50: > 250 µM
Parainfluenza-3 virus
  EC50: 50 µM
Coxsackie B4 virus
  EC50: > 250 µM
Punto Toro virus
  EC50: 38 µM
Reovirus-1
  EC50: > 250 µM
VERO cells; reference in µM
  Cytotoxicity MCC: >250 µM

## dextran sulphate MW 5,000 [DS-5,000, reference compound]
Parainfluenza-3 virus
  Antiviral EC50 Parainfluenza-3 virus: >100 mg/L
Reovirus-1
  Antiviral EC50 Reovirus-1: ≥100 mg/L
VERO cells; [4]
  Cytotoxicity MCC: >100 µg/mL

## O=C(Cc1csc2nc(-c3ccc(Br)cc3)cn12)NN1C(=O)CSC12CCCC2 [Compound 5a, 2-[6-(4-Bromophenyl)imidazo[2,1-b]thiazole-3-yl]-N-(3-oxo-1-thia-4-azaspiro[4.4]non-4-yl)acetamide]
HSV-2
  EC50: > 100 mg/L
Sindbis virus
  EC50: > 100 mg/L
[1]
  H37Rv Finding MIC: 8.453 mg/L
  H37Rv Finding Activity: Active
ACV^r-HSV-1
  EC50: > 100 mg/L
HSV-1
  EC50: > 100 mg/L
Parainfluenza-3 virus
  EC50: > 100 mg/L
Feline herpesvirus
  EC50: > 100 mg/L
Coxsackie B4 virus
  EC50: > 100 mg/L
Punto Toro virus
  EC50: > 100 mg/L
Vaccinia virus
  EC50: > 100 mg/L
Reovirus-1
  EC50: > 100 mg/L
Feline coronavirus
  EC50: > 100 mg/L
[3]; [4]
  Cytotoxicity MCC: 100 µg/mL
VERO cells; [4]
  Cytotoxicity MCC: ≥20 µg/mL

## CC1SC2(CCC(c3ccccc3)CC2)N(NC(=O)Cc2csc3nc(-c4ccc(Br)cc4)cn23)C1=O (centres unmarked) [Compound 6c, 2-[6-(4-Bromophenyl)imidazo[2,1-b]thiazole-3-yl]-N-(2-methyl-8-phenyl-3-oxo-1-thia-4-azaspiro[4.5]dec-4-yl)acetamide]
HSV-2
  EC50: > 100 mg/L
Sindbis virus
  EC50: > 100 mg/L
ACV^r-HSV-1
  EC50: > 100 mg/L
HSV-1
  EC50: > 100 mg/L
Parainfluenza-3 virus
  EC50: > 100 mg/L
Feline herpesvirus
  EC50: > 100 mg/L
Coxsackie B4 virus
  EC50: > 100 mg/L
Punto Toro virus
  EC50: > 100 mg/L
Vaccinia virus
  EC50: > 100 mg/L
Reovirus-1
  EC50: > 100 mg/L
Feline coronavirus
  EC50: > 100 mg/L
[3]; [4]
  Cytotoxicity MCC: 20 µg/mL
VERO cells; [4]
  Cytotoxicity MCC: 20 µg/mL

## CC1SC2(CCCCC2)N(NC(=O)Cc2csc3nc(-c4ccc(Br)cc4)cn23)C1=O (centres unmarked) [Compound 6b, 2-[6-(4-Bromophenyl)imizado[2,1-b]thiazole-3-yl]-N-(2-methyl-3-oxo-1-thia-4-azaspiro[4], [5]dec-4-yl)acetamide]
HSV-2
  Antiviral EC50 HSV-2: >100 mg/L
Sindbis virus
  Antiviral EC50 Sindbis virus: >100 mg/L
ACV^r-HSV-1
  Antiviral EC50 ACV^r-HSV-1: >100 mg/L
[2]
  Antiviral EC50 Vesicular stomatitis virus: >100 mg/L
HSV-1
  Antiviral EC50 HSV-1: >100 mg/L
Parainfluenza-3 virus
  Antiviral EC50 Parainfluenza-3 virus: >100 mg/L
Coxsackie B4 virus; VERO cells
  Antiviral EC50 Coxsackie B4 virus: >100 mg/L
Punto Toro virus
  Antiviral EC50 Punto Toro virus: >100 mg/L
Vaccinia virus
  Antiviral EC50 Vaccinia virus: >100 mg/L
Reovirus-1
  Antiviral EC50 Reovirus-1: >100 mg/L
CRFK feline kidney cells
  Cytotoxicity CC50: 9.2 mg/L
[3]; [4]
  Cytotoxicity MCC: 20 µg/mL
VERO cells; [4]
  Cytotoxicity MCC: 100 µg/mL

## O=C(Cc1csc2nc(-c3ccc(Br)cc3)cn12)NN1C(=O)CSC12CCCCC2 [Compound 5b, 2-[6-(4-Bromophenyl)imidazo[2,1-b]thiazole-3-yl]-N-(3-oxo-1-thia-4-azaspiro[4.5]dec-4-yl)acetamide]
HSV-2
  EC50: > 100 mg/L
Sindbis virus
  EC50: > 100 mg/L
[1]
  H37Rv Finding MIC: 1.566 mg/L
  H37Rv Finding Activity: Active
ACV^r-HSV-1
  EC50: > 100 mg/L
HSV-1
  EC50: > 100 mg/L
Parainfluenza-3 virus
  EC50: > 100 mg/L
Feline herpesvirus
  EC50: > 100 mg/L
Coxsackie B4 virus
  EC50: > 100 mg/L
Punto Toro virus
  EC50: > 100 mg/L
Vaccinia virus
  EC50: > 100 mg/L
Reovirus-1
  EC50: > 100 mg/L
Feline coronavirus
  EC50: > 100 mg/L
[3]; [4]
  Cytotoxicity MCC: >100 µg/mL
VERO cells; [4]
  Cytotoxicity MCC: >100 µg/mL

## O=c1[nH]c(=O)n([C@H]2C[C@H](O)[C@@H](CO)O2)cc1/C=C/Br [Brivudine, reference compound]
HSV-2
  EC50: 50 µM
[3]; reference in µM
  Cytotoxicity MCC: >250 µM

## Nc1nc(O)c2ncn(COC(CO)CO)c2n1 [Ganciclovir, reference compound]
HSV-2
  EC50: 0.03 µM
ACV^r-HSV-1
  EC50: 60 µM
HSV-1
  EC50: 0.025 µM
Feline herpesvirus
  EC50: 1.9 µM
Vaccinia virus
  EC50: > 100 µM
Feline coronavirus
  EC50: > 100 µM
[3]; reference in µM
  Cytotoxicity MCC: >100 µM

## CC1SC2(CCCC2)N(NC(=O)Cc2csc3nc(-c4ccc(Br)cc4)cn23)C1=O (centres unmarked) [Compound 6a, 2-[6-(4-Bromophenyl)imidazo[2,1-b]thiazole-3-yl]-N-(2-methyl-3-oxo-1-thia-4-azaspiro[4.4]non-4-yl)acetamide]
HSV-2
  EC50: > 100 mg/L
Sindbis virus
  EC50: > 100 mg/L
ACV^r-HSV-1
  EC50: > 100 mg/L
HSV-1
  EC50: > 100 mg/L
Parainfluenza-3 virus
  EC50: > 100 mg/L
Feline herpesvirus
  EC50: > 100 mg/L
Coxsackie B4 virus
  EC50: > 100 mg/L
Punto Toro virus
  EC50: > 100 mg/L
Vaccinia virus
  EC50: > 100 mg/L
Reovirus-1
  EC50: > 100 mg/L
Feline coronavirus
  EC50: > 100 mg/L
[3]; [4]
  Cytotoxicity MCC: ≥20 µg/mL
VERO cells; [4]
  Cytotoxicity MCC: 100 µg/mL

## Nc1ccn(C[C@@H](CO)OCP(=O)(O)O)c(=O)n1 [Cidofovir, reference compound]
[3]; reference in µM
  Cytotoxicity MCC: >250 µM

B1: Urtica dioica agglutinin (protein, UniProt P11218 24-372, looked up)
Lectin/endochitinase 1: QRCGSQGGGGTCPALWCCSIWGWCGDSEPYCGRTCENKCWSGERSDHRCGAAVGNPPCGQDRCCSVHGWCGGGNDYCSGSKCQYRCSSSVRGPRVALSGNSTANSIGNVVVTEPLFDQMFSHRKDCPSQGFYSYHSFLVAAESFPAFGTIGDVATRKREVAAFLAHISQATSGERSDVENPHAWGLCHINTTTVTENDFCTSSDWPCAAGKKYSPRGPIQLTHNFNYGLAGQAIGEDLIQNPDLVEKDPIISFKTALWFWMSQHDNKPSCHDIVLNANSAANRIPNKGVIGNIISRAFGHDDFAVRSSSIGFYKRYCDMLGVSYGHDLKYWFDNTPSSEFQRIQMRVAA
CRFK feline kidney cells
  Cytotoxicity CC50: 29 mg/L
